# Measurements: US20190106697A1, “Inhibition Of Lactate Transporters For Use In The Treatment Of Inflammatory Diseases” (Queen Mary University of London, priority 2014, published 2019)
# Legend:
# Format in all cases: cell-based, mouse
# [1] = system: CD8+ cytotoxic T-cells; test: CTL cytotoxicity assay with allogeneic endothelial cells; conditions: 10 mM
# Description: CTL differentiation and activity assay: Isolated CD8+ T-cells (balb/c) were incubated with CD3-depleted and mytomycin-C-eradicated allogeneic splenocytes (C57BL/6). […] Dead cells were counted using trypan blue exclusion assay 2, 4, 6 and 18 hours after the start of the assay.
# [2] = system: activated CD4+ T-cells; test: In vitro chemokinesis of activated CD4+ T-cells towards CXCL10 (transwell); conditions: 10 mM lactic acid or sodium lactate, CXCL10 300 ng/ml
# From the text: (§1) T-cell isolation, in-vitro activation and subset enrichment: T-cells were isolated from C57BL/6 murine lymph nodes and activated for 3 to 5 days with plate bound anti-CD3 and anti-CD28 antibodies (BioLegend), and IL-2 (PeproTech). CD4+ and CD8+ subsets were enriched with commercially available CD4+ and CD8+ T-cell isolation kits according to the manufacturer's instructions (Easysep, Invitrogen) either prior or post activation according to experimental settings. Chemokinesis assays: Chemokinesis assays were performed in 5 μm transwell inlays. In some experiments, T-cells were pre-treated overnight with a number of drugs purchased from Calbiochem: Rapamycin (200 nM), 2-DG (1 mM), Metformin (2 mM). […] 3×10^6 lymphocytes were seeded in the upper transwell chamber; chemokines were added to the lower chamber: CXCL10 (300 ng/ml), CCL5 (50 ng/ml), CCL19/21 (200 ng/ml of each chemokine). Migrated T-cells were counted with a hemocytometer 2, 4 and 6 hours after seeding and % of migrated cells was calculated.
# [3] = system: activated CD4+ T-cells; test: CCL5-induced chemokinesis of activated CD4+ T-cells; conditions: 10 mM; CCL5 50 ng/ml
# From the text: as §1
# [4] = system: activated CD8+ T-cells; test: In vitro chemokinesis of activated CD8+ T-cells towards CXCL10 (transwell)
# From the text: as §1
# [5] = system: activated CD8+ T-cells; test: Glucose uptake and flux with 2-NBDG / 6-NBDG in CD8+ T-cells; conditions: 2-NBDG and 6-NBDG probes
# Description: Measurement of lactate, glycolysis, glucose uptake/flux and cell death: Lactate concentration was measured in the synovial fluid or peritoneal lavage using the Lactate assay Kit (Biovision), according to the manufacturer's instructions. Glycolytic metabolism was measured with a Seahorse XF24 Extracellular Flux Analyzer. Briefly, T-cells were grown in high glucose RPMI-1640 supplemented with 10% FCS. […] T-cell viability upon lactate or metabolic drug treatment was assessed by trypan blue exclusion assay.
structure (smiles),measurement,setting,value
CC(O)C(=O)O (stereo not shown) [lactic-acid],cytolytic activity of CTLs,[1],inhibited
same,CXCL10-induced chemokinesis of activated CD4+ T-cells,[2],not vice versa
same,CXCL10-induced chemokinesis of activated CD4+ T-cells,[2]; listed as lactic acid,not affected
same,CCL5-induced migration of CD4+ T-cells,[3],not
same,CXCL10-induced chemokinesis of activated CD8+ T-cells,"[4]; 10 mM lactic acid or sodium lactate, CXCL10 300 ng/ml",inhibited
same,"chemokinesis of CD8+ T-cells, culture media buffered to neutral pH",[4]; lactic-acid with bicarbonate or HEPES to reach a neutral pH,still impaired
same,glucose uptake and flux through glycolysis in CD8+ T-cells,[5],vice versa
